Measured values: patent publication US20060062736A1, “Therapeutic foam” (priority 2003, published 2006)

Test: In vitro absorption of foam/gas in fresh human venous blood
Format: in vitro ADME
Conditions: 0.5 ml aliquot into 20 ml stirred blood
Procedure: In vitro experiments were conducted to determine the absorption of foam made with different gases in fresh human venous blood.
A 20 ml polypropylene syringe barrel was prepared by puncturing its side wall with a relatively large hypodermic needle to make a hole approximately 1 mm in diameter. This hole was then covered by securing a piece of clear flexible vinyl sheet over it with clear adhesive tape. A small magnetic stirrer element was introduced into the syringe barrel and the plunger then replaced. 20 ml of human venous blood was then with withdrawn in the usual manner from a human subject using the specially prepared syringe fitted with a hypodermic needle.
The hypodermic needle was removed and the syringe then placed on a magnetic stirrer unit so that the magnetic element in the syringe thoroughly agitated the blood. […]
The needle of the 0.5 ml syringe was then introduced through the vinyl sheet on the side wall of the 20 ml syringe. […] It was determined that a distance of 45 intervals on this scale corresponded to an internal volume of in the manometer tubing of approximately 0.5 ml. […]
In this experiment, the air foam test was only observed for a few minutes after tF. However, further experiments have been conducted by the inventors, the results of which are not formally recorded here, involving foam with a percentage of nitrogen. […]

SMILES: O=O [Oxygen gas, oxygen]
- Absorbed volume at tF 0.5(y − z)/(y − x): 0.46 mL
- tF (time at which blood column stopped moving): 140 s
